This experiment relates to P388. Description: Cytotoxicity against mouse P388 cells. Type of experiment: functional, cell-based.

Structures are written as SMILES.

For `Cn1c(-c2cn(C)c3ccccc23)cnc1-c1cn(C)c2cc(Br)ccc12` [N-METHYL NORTOPSENTIN B], the IC50 (as a rule, the concentration that gives 50% inhibition) amounted to 0.8 µM.

In the case of `Brc1ccc2c(-c3c[nH]c(-c4c[nH]c5cc(Br)ccc45)n3)c[nH]c2c1` [NORTOPSENTIN A], the IC50 was found to be 4.5 µM.

As to `Brc1ccc2c(-c3nc(-c4c[nH]c5ccccc45)c[nH]3)c[nH]c2c1` [NORTOPSENTIN B], half-maximal inhibition (IC50) was put at 4.5 µM. This lies in the single-digit micromolar range.

As to `Brc1ccc2c(-c3c[nH]c(-c4c[nH]c5ccccc45)n3)c[nH]c2c1` [NORTOPSENTIN C], it took 4.5 µM to reach half-maximal inhibition (IC50).
